Key:
Type in all cases: cell-based
[1] = tested on: A control cell lines; assay: MTT assay, A control cell lines (lung cancer cell)
Text: Please refer to Table 1 and FIGS. 4A-4C. According to a MTT assay (Table 1), various cell viabilities of the A control cell lines can be obtained and illustrated in FIG. 4A while the compounds No. 2˜30 are used to treat A control cell lines, wherein A control cell lines are lung cancer cell.

[2] = tested on: A3 cell lines; assay: MTT assay, A3 cell lines (lung cancer stem cell)
Text: Please to FIG. 4B, various cell viabilities of the A3 cell lines can be obtained through the MTT assay and illustrated in FIG. 4B while the compounds No. 1˜30 are used to treat A3 cell lines, wherein A3 cell lines are lung cancer stem cell.

[3] = tested on: CCRF-CEM; assay: NCI in vitro DTP human cell line screen, CCRF-CEM; settings: Leukemia, 1.00E−5 Molar
Experimental: (§1) Then, a cell toxicity assay of the cancer lines made by National Cancer Institute will be discussed as follows. The cell toxicity assay is performed by choosing ten compounds (existing certification numbers) from the 59 compounds disclosed in the present invention first.

[4] = tested on: HL-60(TB); assay: NCI in vitro DTP human cell line screen, HL-60(TB); settings: Leukemia, 1.00E−5 Molar
Experimental: as §1

[5] = tested on: K562; assay: NCI in vitro DTP human cell line screen, K562; settings: Leukemia, 1.00E−5 Molar
Experimental: as §1

[6] = tested on: MOLT-4; assay: NCI in vitro DTP human cell line screen, MOLT-4; settings: Leukemia, 1.00E−5 Molar
Experimental: as §1

[7] = tested on: RPMI-8226; assay: NCI in vitro DTP human cell line screen, RPMI-8226; settings: Leukemia, 1.00E−5 Molar
Experimental: as §1

[8] = tested on: SR; assay: NCI in vitro DTP human cell line screen, SR; settings: Leukemia, 1.00E−5 Molar
Experimental: as §1

[9] = tested on: EKVX; assay: NCI in vitro DTP human cell line screen, EKVX; settings: Non-Small Cell Lung Cancer, 1.00E−5 Molar
Experimental: as §1

[10] = tested on: HOP-62; assay: NCI in vitro DTP human cell line screen, HOP-62; settings: Non-Small Cell Lung Cancer, 1.00E−5 Molar
Experimental: as §1

[11] = tested on: HOP-92; assay: NCI in vitro DTP human cell line screen, HOP-92; settings: Non-Small Cell Lung Cancer, 1.00E−5 Molar
Experimental: as §1

[12] = tested on: NCI-H226; assay: NCI in vitro DTP human cell line screen, NCI-H226; settings: Non-Small Cell Lung Cancer, 1.00E−5 Molar
Experimental: as §1

[13] = tested on: NCI-H23; assay: NCI in vitro DTP human cell line screen, NCI-H23; settings: Non-Small Cell Lung Cancer, 1.00E−5 Molar
Experimental: as §1

[14] = tested on: NCI-H322M; assay: NCI in vitro DTP human cell line screen, NCI-H322M; settings: Non-Small Cell Lung Cancer, 1.00E−5 Molar
Experimental: as §1

[15] = tested on: NCI-H460; assay: NCI in vitro DTP human cell line screen, NCI-H460; settings: Non-Small Cell Lung Cancer, 1.00E−5 Molar
Experimental: as §1

[16] = tested on: NCI-H522; assay: NCI in vitro DTP human cell line screen, NCI-H522; settings: Non-Small Cell Lung Cancer, 1.00E−5 Molar
Experimental: as §1

[17] = tested on: COLO 205; assay: NCI in vitro DTP human cell line screen, COLO 205; settings: Colon Cancer, 1.00E−5 Molar
Experimental: as §1

[18] = tested on: HCC-2998; assay: NCI in vitro DTP human cell line screen, HCC-2998; settings: Colon Cancer, 1.00E−5 Molar
Experimental: as §1

[19] = tested on: HCT-116; assay: NCI in vitro DTP human cell line screen, HCT-116; settings: Colon Cancer, 1.00E−5 Molar
Experimental: as §1

[20] = tested on: HCT-15; assay: NCI in vitro DTP human cell line screen, HCT-15; settings: Colon Cancer, 1.00E−5 Molar
Experimental: as §1

[21] = tested on: HT29; assay: NCI in vitro DTP human cell line screen, HT29; settings: Colon Cancer, 1.00E−5 Molar
Experimental: as §1

[22] = tested on: SF-268; assay: NCI in vitro DTP human cell line screen, SF-268; settings: CNS Cancer, 1.00E−5 Molar
Experimental: as §1

[23] = tested on: SF-295; assay: NCI in vitro DTP human cell line screen, SF-295; settings: CNS Cancer, 1.00E−5 Molar
Experimental: as §1

[24] = tested on: SNB-75; assay: NCI in vitro DTP human cell line screen, SNB-75; settings: CNS Cancer, 1.00E−5 Molar
Experimental: as §1

[25] = tested on: U251; assay: NCI in vitro DTP human cell line screen, U251; settings: CNS Cancer, 1.00E−5 Molar
Experimental: as §1

[26] = tested on: LOX IMVI; assay: NCI in vitro DTP human cell line screen, LOX IMVI; settings: Melanoma, 1.00E−5 Molar
Experimental: as §1

[27] = tested on: MALME-3M; assay: NCI in vitro DTP human cell line screen, MALME-3M; settings: Melanoma, 1.00E−5 Molar
Experimental: as §1

[28] = tested on: M14; assay: NCI in vitro DTP human cell line screen, M14; settings: Melanoma, 1.00E−5 Molar
Experimental: as §1

[29] = tested on: MDA-MB-435; assay: NCI in vitro DTP human cell line screen, MDA-MB-435; settings: Melanoma, 1.00E−5 Molar
Experimental: as §1

[30] = tested on: SK-MEL-28; assay: NCI in vitro DTP human cell line screen, SK-MEL-28; settings: Melanoma, 1.00E−5 Molar
Experimental: as §1

[31] = tested on: SK-MEL-5; assay: NCI in vitro DTP human cell line screen, SK-MEL-5; settings: Melanoma, 1.00E−5 Molar
Experimental: as §1

[32] = tested on: UACC-257; assay: NCI in vitro DTP human cell line screen, UACC-257; settings: Melanoma, 1.00E−5 Molar
Experimental: as §1

[33] = tested on: IGROV1; assay: NCI in vitro DTP human cell line screen, IGROV1; settings: Ovarian Cancer, 1.00E−5 Molar
Experimental: as §1

[34] = tested on: OVCAR-3; assay: NCI in vitro DTP human cell line screen, OVCAR-3; settings: Ovarian Cancer, 1.00E−5 Molar
Experimental: as §1

[35] = tested on: OVCAR-5; assay: NCI in vitro DTP human cell line screen, OVCAR-5; settings: Ovarian Cancer, 1.00E−5 Molar
Experimental: as §1

[36] = tested on: OVCAR-8; assay: NCI in vitro DTP human cell line screen, OVCAR-8; settings: Ovarian Cancer, 1.00E−5 Molar
Experimental: as §1

[37] = tested on: SK-OV-3; assay: NCI in vitro DTP human cell line screen, SK-OV-3; settings: Ovarian Cancer, 1.00E−5 Molar
Experimental: as §1

[38] = tested on: 786-0; assay: NCI in vitro DTP human cell line screen, 786-0; settings: Renal Cancer, 1.00E−5 Molar
Experimental: as §1

[39] = tested on: ACHN; assay: NCI in vitro DTP human cell line screen, ACHN; settings: Renal Cancer, 1.00E−5 Molar
Experimental: as §1

[40] = tested on: RXF 393; assay: NCI in vitro DTP human cell line screen, RXF 393; settings: Renal Cancer, 1.00E−5 Molar
Experimental: as §1

[41] = tested on: UO-31; assay: NCI in vitro DTP human cell line screen, UO-31; settings: Renal Cancer, 1.00E−5 Molar
Experimental: as §1

[42] = tested on: PC-3; assay: NCI in vitro DTP human cell line screen, PC-3; settings: Prostate Cancer, 1.00E−5 Molar
Experimental: as §1

[43] = tested on: MCF7; assay: NCI in vitro DTP human cell line screen, MCF7; settings: Breast Cancer, 1.00E−5 Molar
Experimental: as §1

[44] = tested on: MDA-MB-231/ATCC; assay: NCI in vitro DTP human cell line screen, MDA-MB-231/ATCC; settings: Breast Cancer, 1.00E−5 Molar
Experimental: as §1

[45] = tested on: HS 578-T; assay: NCI in vitro DTP human cell line screen, HS 578-T; settings: Breast Cancer, 1.00E−5 Molar
Experimental: as §1

[46] = tested on: T-47D; assay: NCI in vitro DTP human cell line screen, T-47D; settings: Breast Cancer, 1.00E−5 Molar
Experimental: as §1

[47] = tested on: MDA-MB-468; assay: NCI in vitro DTP human cell line screen, MDA-MB-468; settings: Breast Cancer, 1.00E−5 Molar
Experimental: as §1

CCCSc1ccc2c(=O)c3ccccc3sc2c1Cl [No. 3, 4-Chloro-3-(propylthio)-9H-thioxanthen-9-one]
cell viabilities of A control cell lines (MTT assay) [1]: 84.8 ± 2.95%
cell viabilities of A3 cell lines (MTT assay) [2]: 103 ± 10.2%
Growth Percent [3]: 85.29%
Growth Percent [4]: 118.59%
Growth Percent [5]: 94.26%
Growth Percent [6]: 94.70%
Growth Percent [7]: 104.20%
Growth Percent [8]: 75.26%
Growth Percent [9]: 96.42%
Growth Percent [10]: 105.09%
Growth Percent [11]: 98.11%
Growth Percent [12]: 94.52%
Growth Percent [13]: 91.47%
Growth Percent [14]: 73.70%
Growth Percent [15]: 59.83%
Growth Percent [16]: 94.37%
Growth Percent [17]: 92.63%
Growth Percent [18]: 100.70%
Growth Percent [19]: 61.89%
Growth Percent [20]: 98.58%
Growth Percent [21]: 103.50%
Growth Percent [22]: 80.00%
Growth Percent [23]: 82.14%
Growth Percent [24]: 100.85%
Growth Percent [25]: 67.20%
Growth Percent [26]: 64.69%
Growth Percent [27]: 92.96%
Growth Percent [28]: 102.38%
Growth Percent [29]: 80.72%
Growth Percent [30]: 104.13%
Growth Percent [31]: 98.20%
Growth Percent [32]: 98.85%
Growth Percent [33]: 91.28%
Growth Percent [34]: 90.35%
Growth Percent [35]: 94.79%
Growth Percent [36]: 83.50%
Growth Percent [37]: 104.52%
Growth Percent [38]: 101.51%
Growth Percent [39]: 74.17%
Growth Percent [40]: 106.97%
Growth Percent [41]: 99.45%
Growth Percent [42]: 94.80%
Growth Percent [43]: 97.13%
Growth Percent [44]: 85.71%
Growth Percent [45]: 94.80%
Growth Percent [46]: 98.14%
Growth Percent [47]: 91.53%

Source: patent publication US8410161B2, “Thioxanthone ring system derivatives” (National Defense Medical Center, priority 2010, dated 2013)
